5 compounds from patent US20230122967A1, “NOVEL COMPOUNDS AS INHIBITORS OF PCSK9” (SHENGKE PHARMACEUTICALS (JIANGSU) LTD., priority 2020, published 2023) can be followed below.

SMILES strings stand for the structures.

Format in all cases: cell-based
Data set [1] deals with PCSK9 mRNA. Nature of the data set: RT-Q-PCR analysis of PCSK9 mRNA in HepG2 cells. Particulars: Homo sapiens, 24 h, normalized to GAPDH, read-out: HepG2 Q-PCR PCSK9 mRNA level decrease (10 μM). As for the experimental part:
HepG2 cells (ATCC, Cat.: HB-8065) were maintained in Growth medium-Eagle's Minimum Essential Medium (Corning, 10-010-CVR), 10% FBS (Gibco, 10099-141), Penicillin (100 units/mL), Streptomycin ([…]). HepG2 cells were incubated at 37° C., 5% CO2.
Cells were cultured in growth medium as described above and treated with the vehicle, Berberine or test compound for 24 h. The RNA was extracted using the Total RNA mini Kit (Tiangen, Beijing, China) according to the manufacturer's instructions. Reverse transcription was carried out using the High-Capacity cDNA reverse transcription kit (Thermo Fisher Scientific). Quantitative real-time PCR was performed using a reaction mixture containing cDNA, specific primers [PCSK9, 5′-[…]-3′ (forward) and 5′-[…]-3′ (reverse); GAPDH, 5′-[…]-3′ (forward) and 5′-[…]-3′ (reverse)] and Maxima SYBR Green/ROX qPCR Master Mix (Thermo Fisher Scientific). PCR amplification was carried out in a Real-Time PCR System. The real-time PCR conditions were 37° C. 10 min; 95° C. 10 min; 95° C. 15 s, 60° C. 30 s, 72° C. 30 s, 40 cycle. The amount of % RNA was normalized to the GAPDH level in the same samples.

Data set [2] deals with PCSK9. Nature of the data set: PCSK9 ELISA on HepG2 culture medium. The settings on record: HepG2 cells, 24 hr. The protocol:
(§1) HepG2 cells (ATCC, Cat.: HB-8065) were maintained in Growth medium-Eagle's Minimum Essential Medium (Corning, 10-010-CVR), 10% FBS (Gibco, 10099-141), Penicillin (100 units/mL), Streptomycin ([…]). HepG2 cells were incubated at 37° C., 5% CO2. HepG2 cells were plated in flat bottom 96-well plates (Corning, 3599) at 40,000 cells/well in 100 μL of growth media. After an overnight incubation, the culture media were changed to serum-free OptiMEM media (Gibco, 31985-062), 90 μL/well. Vehicle, PF-06446846 hydrochloride, berberine, or test compound was added to the culture media, 10 μL/well. After 24 hr medium was harvested, and 10 μL of the medium were used for the PCSK9 ELISA (R&D Systems, SPC900).

For data set [3], the system named is HepG2 cells. Nature of the data set: Cell viability assay (HepG2 Survival assay, CellTiter-Glo). Particulars: 24 hr, cellular ATP levels. The protocol:
as §1, with “black clear” for “flat”, “3063)” for “3599)”, “cellular ATP levels” for “medium was harvested, and 10 μL of the medium”, “measured using CellTiter-Glo® 2.0 Assay (Promega, G9242).” for “used for the PCSK9 ELISA (R&D Systems, SPC900).”

Data set [4] concerns HepG2 cells. Nature of the data set: Measurement of Dil-LDL uptake in HepG2 cells. The settings on record: Homo sapiens, 24 h, 10 μM for 20 h, then 20 μg/mL Dil-LDL 4 h, read-out: LDL uptake 10 μM (fold of vehicle). As for the experimental part:
HepG2 cells were maintained in MEM supplemented with 10% FBS. The cells were seeded in 96 well black plates at a density of 1×10^4 cells per well and grown to 70-80% confluence. Afterwards, cells were changed to serum-free Opti-MEM for 1 h and followed by incubation with 10 μM Berberine or compounds of the present disclosure for 20 h. Then, 20 μg/mL Dil-LDL was added and incubated at 37° C. in the dark for additional 4 h. Cells were extensively washed three times with PBS, and LDL uptake was determined on a fluorescence plate reader at an excitation wavelength of 520 nm and emission wavelength of 580 nm.

Regarding `CN(Cc1ccccc1F)C(=O)CN(CC(=O)Nc1ccc(Oc2ccccc2)cc1)C(=O)c1cc2cccc(F)c2[nH]1` [Compound 201-74], the inhibition at 10 µM in data set [1] came out at 88%. Also, the “HepG2 PCSK9 ELISA (10 μM) % inhibition” value in data set [2] worked out at 77%. Also, the “HepG2 Survival assay (10 μM)” value in data set [3] stood at 96%. Further, the fold induction at 10 µM in data set [4] was determined as 3.92.

Take `CN(Cc1ccccc1F)C(=O)CN(CC(=O)Nc1ccc(Oc2ccc(F)c(F)c2)cc1)C(=O)c1ccc(C(F)(F)F)o1` [Compound 201-115]: in data set [1], the inhibition at 10 µM was 90%. In addition, in data set [2], the “HepG2 PCSK9 ELISA (10 μM) % inhibition” value amounted to 90%. For the same compound, in data set [3], the “HepG2 Survival assay (10 μM)” value stood at 100%. The fold induction at 10 µM in data set [4] was 4.07.

With `CC(C)c1ccc(Oc2ccc(NC(=O)CN(CC(=O)Nc3ccccc3)C(=O)c3cc4cccc(C#N)c4[nH]3)cc2)cc1` [Compound 201-269], the inhibition at 10 µM in data set [1] amounted to 87%. Further, the “HepG2 PCSK9 ELISA (10 μM) % inhibition” value in data set [2] came out at 53%. Further, the “HepG2 Survival assay (10 μM)” value in data set [3] came out at 106%. Further, the fold induction at 10 µM in data set [4] was 1.34.

As for `CN(C(=O)CN(CC(=O)Nc1ccc(Oc2ccc(F)c(F)c2)cc1)C(=O)c1cc2cccc(F)c2[nH]1)C1CCCC1` [Compound 201-75], the inhibition at 10 µM in data set [1] was found to be 90%. Moreover, in data set [2], the “HepG2 PCSK9 ELISA (10 μM) % inhibition” value is 80%. Also, the “HepG2 Survival assay (10 μM)” value in data set [3] came to 100%. Besides, in data set [4], the fold induction at 10 µM is 2.92.

`CN(C(=O)CN(CC(=O)Nc1ccc(Oc2ccc(F)cc2)cc1)C(=O)c1cc2cccc(F)c2[nH]1)C1CCCC1` [Compound 201-65]: in data set [1], the inhibition at 10 µM came to 87%. Moreover, the “HepG2 PCSK9 ELISA (10 μM) % inhibition” value in data set [2] amounted to 85%. In data set [3], the “HepG2 Survival assay (10 μM)” value is recorded as 100%. The fold induction at 10 µM in data set [4] turned out to be 1.84.
